From patent US10293020B2, “Peptide therapeutics and methods for using same” (Stealth BioTherapeutics Corp, priority 2013, dated 2019)
Non-standard residues stand in square brackets, D forms with d. No end group written: not given here. Cha = N[C@@H](CC1CCCCC1)C(=O)O

Legend:
[1] = 13C MAS PRE solid-state NMR of peptide in Mn2+-bound vesicles; format: physicochemical
Excerpt: (§1) Large unilamellar vesicles (LUVs) with a transmembrane gradient of about −180 mV are constructed, composed of a mixture of cardiolipin (CL, 10% mol), phosphatidylcholine (PC, 50% mol), and phosphatidylethanolamine (PE, 40% mol). An electrochemical gradient is incorporated because the transloation of MPPs is known to be highly dependent on electrochemical potential. Spectra from three different peptide-lipid systems are compared: Mn^2+ free, Mn^2+ bound to one side of the vesicle, and Mn^2+ bound to both the inside and outside of the vesicle.
A pH difference is used to establish a transmembrane gradient. The membrane encapsulates 300 mM pH 4 phosphate buffer inside the vesicle and 10 mM pH 7 phosphate buffer outside to establish an electrochemical potential of −177 mV, which is reflective of the biologically encountered mitochondrial gradient of −180 mV. The existence of a three unit pH gradient is confirmed by the fluorescence response of 9-aminoacridine as previously described.
Hydrated CL/PC/PE membranes are formed by dissolving the lipids in a 95:5 benzene:ethanol mixture at an appropriate molar ratio of 0.1/0.5/0.4, respectively. The lipid mixture is lyophilized overnight. The dried lipid cake is rehydrated with 300 mM phosphate buffer at pH 4 which is heated to 85° C. The rehydrated lipid sample is incubated for 2 hours at 85° C. and vortexed periodically to produce multilamellar vesicles (MLVs). The resulting MLVs are down-sized using a mini extruder (Avanti Polar Lipids, Inc.) and passed through a 100 nm polycarbonate membrane 21 times to produce LUVs of uniform diameter of 100 nm. The size of the vesicles is confirmed by dynamic light scattering on a ZetaPALS particle size analyzer. The LUVs are dialyzed for at least 8 hours using a Slide-A-Lyzer (Thermo Fisher Scientific) to remove the low pH, high salt buffer and replace it with 10 mM phosphate buffer at pH 7 for the exterior membrane environment.
After dialysis, the MPP is added at the appropriate molar ratio (P:L=1:10 or P:L=1:40) to the LUVs and incubated overnight. The MPP-lipid mixture is centrifuged at 160 000 g for 1.5 hours to yield a hydrated pellet, which is packed into a 200 μL MAS rotor. For the Mn^2+ containing samples, the Mn^2+ solution is prepared from MnCl2.4H2O and added at 8 mol % of the lipids. To obtain one side Mn^2+ bound vesicles, the Mn^2+ solution is either added after ultracentrifugation or during extrusion, producing outside-bound and inside-bound one side Mn^2+ bound samples. For two side Mn^2+ bound vesicles, the vesicles are extruded with the appropriate percentage of Mn^2+ and had Mn^2+ added after dialysis to replace the ions lost during this process.
(§2) The spinning rate for all MAS experiments is 5 kHz, performed at 310 K. ^13C direct polarization (DP) MAS NMR spectra is decoupled with two pulse phase modulation (TPPM) at ^1H field strengths of 30 kHz. Typical radiofrequency (rf) pulse lengths are ˜5 μs for ^13C and ˜2 μs for ^1H. Static ^31P spectra are decoupled with WALTZ-16 at ^1H field strengths of 6 kHz. Typical rf pulse lengths are ˜4 μs for ^31P.
To assess the remaining two mechanisms of translocation (electroporation and guanidinium-phosphate complexation), a ^13C MAS NMR PRE method at 310 K is used. In order to assure asymmetric distribution of Mn^2+ paramagnetic ions with the new model inner mitochondrial membranes, the ion position is monitoted with the ^31P NMR signal of the lipid heagroups. Without paramagnetic ions present, the entire signal is measured from all the phospholipid headgroups. The addition of Mn^2+ to the outside of the vesicles is expected to cause signal attenuation of about half the lipids, corresponding to dephasing of the outer leaflet. When the paramagnetic ions are on both sides of the bilayer, the entire ^31P signal is expected to be killed because all lipid headgroups will be in close proximity to Mn^2+. […]

[2] = Variable temperature static 31P NMR of membrane integrity; format: physicochemical; settings: P:L=1:12.5, 280 K-360 K
Excerpt: as §1, §2
Static ^31P chemical shift anisotropy NMR measurements are conducted at variable temperatures (280 K-360 K) to determine if any changes in membrane morphology or lipid transition temperatures occurr upon peptide binding. The ^31P NMR spectra of the model mitochondria membranes alone are recorded to provide a comparison to the peptide-bound membranes. […]

Question: For [Cha]R[Cha]K-NH2 [MPP], which “insertion depth in the bilayer” value ([1]; P:L=1:10) is on record?
Answer: Its value is “inserted into both leaflets at C2”.

Question: And the “insertion depth in the bilayer” value ([1]; P:L=1:40)?
Answer: The value was “inserted at approximately C1-C2”.

Question: And the “leaflet distribution of the peptide” value ([1]; high peptide concentration, P:L=1:10)?
Answer: The value was “distributed in both the inner and outer leaflet”.

Question: And the “leaflet distribution of the peptide” value ([1]; low peptide concentration, P:L=1:40)?
Answer: The value was “binds only to the outer leaflet”.

Question: What about the “peptide 13C peak signal intensity retained vs unbound sample” value ([1]; one side Mn2+ bound, P:L=1:10) of the same substance?
Answer: Its value is ~75%.

Question: What about the “peptide 13C peak signal retention” value ([1]; two side Mn2+ bound, P:L=1:10) of the same substance?
Answer: Its value is “about 50%”.

Question: What about the “effect on bilayer integrity” value [2] of the same substance?
Answer: The value was “does not alter the bilayer integrity”.
